For orientation: IC90 means the concentration needed for an effect of 90%.

The first assay deals with Acinetobacter baumannii ATCC17961. As to the kind of experiment: Antimicrobial susceptibility testing: 90% growth inhibitory concentration (IC90) determination. It counts as cell-based. The settings on record: ATCC17961, 90% growth inhibitory concentration, Iso-Sensitest broth, OD 600 nm over 16 h, 35±2° C., read-out: ATCC 17961 IC90. As to the method:
Assay Procedures Antimicrobial Susceptibility Testing: 90% Growth Inhibitory Concentration (IC90) Determination
The in vitro antimicrobial activity of the compounds was determined according to the following procedure:
The assay used a 10-points Iso-Sensitest broth medium to measure quantitatively the in vitro activity of the compounds against Acinetobacter baumannii ATCC17961.
Stock compounds in DMSO were serially twofold diluted (e.g. range from 50 to 0.097 μM final concentration) in 384 wells microtiter plates and inoculated with 49 μl the bacterial suspension in Iso-Sensitest medium to have a final cell concentration of ˜5×10^5 CFU/ml in a final volume/well of 50 μl/well. Microtiter plates were incubated at 35±2° C.
Bacterial cell growth was determined with the measurement of optical density at λ=600 nm each 20 minutes over a time course of 16 h. Growth inhibition was calculated during the logarithmic growth of the bacterial cells with determination of the concentration inhibiting 50% (IC50) and 90% (IC90) of the growth.
Table 1 provides the 90% growth inhibitory concentrations (IC90) in micromoles per liter of the compounds of present invention obtained against the strain Acinetobacter baumannii ATCC17961.
For the molecule `CN(C)c1nc(F)c(-c2cnc(C(=O)Nc3ccc(C(=O)NCCCCCC[N+](C)(C)C)c(Cl)c3)n2C)cc1F` [Example D3, 6-[[2-chloro-4-[[5-[6-(dimethylamino)-2,5-difluoro-3-pyridyl]-1-methyl-imidazole-2-carbonyl]amino]benzoyl]amino]hexyl-trimethyl-ammonium], the IC90 was 4.2 µM.

Take `CN(C)c1nc(F)c(-c2cnc(C(=O)Nc3ccc(C(=O)N4CCN(C(=O)C5CC[N+](C)(C)CC5)CC4)c(Cl)c3)n2C)cc1F` [Example D4, N-[3-chloro-4-[4-(1,1-dimethylpiperidin-1-ium-4-carbonyl)piperazine-1-carbonyl]phenyl]-5-[6-(dimethylamino)-2,5-difluoro-3-pyridyl]-1-methyl-imidazole-2-carboxamide]: the IC90 amounted to 0.6 µM. For `CNc1nc(F)c(-c2cnc(C(=O)Nc3ccc(C(=O)N4CCN(C(=O)C5CCNCC5)CC4)c(Cl)c3)n2C)cc1F` [Example E1, N-[3-chloro-4-[4-(piperidine-4-carbonyl)piperazine-1-carbonyl]phenyl]-5-[2,5-difluoro-6-(methylamino)-3-pyridyl]-1-methyl-imidazole-2-carboxamide], the IC90 was determined as 1.2 µM. Same read-out and setting: then `CN(C)c1ccc(-c2cnc(C(=O)Nc3ccc(C(=O)N4CCN(C(=O)C5CCNCC5)CC4)c(Cl)c3)n2C)c(Cl)n1` [Example E5, 5-[2-chloro-6-(dimethylamino)-3-pyridyl]-N-[3-chloro-4-[4-(piperidine-4-carbonyl)piperazine-1-carbonyl]phenyl]-1-methyl-imidazole-2-carboxamide], with 0.47 µM; and `CN(C)c1nc(F)c(-c2cnc(C(=O)Nc3ccc(C(=O)NC4CCN(C(=O)[C@@H]5C[C@@H](O)CN5)CC4)c(Cl)c3)n2C)cc1F` [Example F9, N-[3-chloro-4-[[1-[(2S,4R)-4-hydroxypyrrolidine-2-carbonyl]-4-piperidyl]carbamoyl]phenyl]-5-[6-(dimethylamino)-2,5-difluoro-3-pyridyl]-1-methyl-imidazole-2-carboxamide], with 1.9 µM. Turning to `CN(C)c1nc(F)c(-c2cnc(C(=O)Nc3ccc(C(=O)N4CCN(C(=O)C5(O)CCNCC5)CC4)c(Cl)c3)n2C)cc1F` [Example F1, N-[3-chloro-4-[4-(4-hydroxypiperidine-4-carbonyl)piperazine-1-carbonyl]phenyl]-5-[6-(dimethylamino)-2,5-difluoro-3-pyridyl]-1-methyl-imidazole-2-carboxamide], the IC90 was found to be 0.27 µM.

For `CN(C)c1nc(F)c(-c2cnc(C(=O)Nc3ccc(C(=O)N4CCN(C(=O)C[N+](C)(C)C)CC4)c(Cl)c3)n2C)cc1F` [Example D1, [2-[4-[2-chloro-4-[[5-[6-(dimethylamino)-2,5-difluoro-3-pyridyl]-1-methyl-imidazole-2-carbonyl]amino]benzoyl]piperazin-1-yl]-2-oxo-ethyl]-trimethyl-ammonium], the IC90 was 0.65 µM. In the case of `Cn1c(-c2cccc3c2ccn3C)cnc1C(=O)Nc1ccc(C(=O)N2CCN(C(=O)C3CCNCC3)CC2)c(Cl)c1` [Example A13, N-[3-chloro-4-[4-(piperidine-4-carbonyl)piperazine-1-carbonyl]phenyl]-1-methyl-5-(1-methylindol-4-yl)imidazole-2-carboxamide], the IC90 came out at 1.1 µM.

Consider `CN(C)c1nc(F)c(-c2cnc(C(=O)Nc3ccc(C(=O)N4CCN(C(=O)CC5CCNCC5)CC4)c(Cl)c3)n2C)cc1F` [Example F6, N-[3-chloro-4-[4-[2-(4-piperidyl)acetyl]piperazine-1-carbonyl]phenyl]-5-[6-(dimethylamino)-2,5-difluoro-3-pyridyl]-1-methyl-imidazole-2-carboxamide], for which the IC90 worked out at 0.66 µM. In the case of `CN(C)c1nc(F)c(-c2cnc(C(=O)Nc3ccc(C(=O)N4CCN(C(=O)C5CCNC5)CC4)c(Cl)c3)n2C)cc1F` (centres unmarked) [Example F4, N-[3-chloro-4-[4-(pyrrolidine-3-carbonyl)piperazine-1-carbonyl]phenyl]-5-[6-(dimethylamino)-2,5-difluoro-3-pyridyl]-1-methyl-imidazole-2-carboxamide], the concentration for an effect of 90% (IC90) worked out at 0.74 µM. Same read-out and setting: the value for `Cn1c(-c2ccc(Cl)nc2Cl)cnc1C(=O)Nc1ccc(C(=O)N2CCN(C(=O)C3CCNCC3)CC2)c(Cl)c1` [Example A5, N-[3-chloro-4-[4-(piperidine-4-carbonyl)piperazine-1-carbonyl]phenyl]-5-(2,6-dichloro-3-pyridyl)-1-methyl-imidazole-2-carboxamide] was 0.72 µM; that for `COc1ccc(-c2cnc(C(=O)Nc3ccc(C(=O)N4CCN(C(=O)C5CCNCC5)CC4)c(Cl)c3)n2C)c(C(F)(F)F)n1` [Example A16, N-[3-chloro-4-[4-(piperidine-4-carbonyl)piperazine-1-carbonyl]phenyl]-5-[6-methoxy-2-(trifluoromethyl)-3-pyridyl]-1-methyl-imidazole-2-carboxamide] was 0.28 µM. Turning to `CN(C)c1nc(F)c(-c2cnc(C(=O)Nc3ccc(C(=O)NCCCCCCN)c(Cl)c3)n2C)cc1F` [Example B1, N-[4-(6-aminohexylcarbamoyl)-3-chloro-phenyl]-5-[6-(dimethylamino)-2,5-difluoro-3-pyridyl]-1-methyl-imidazole-2-carboxamide], the concentration for an effect of 90% (IC90) worked out at 1.7 µM. Still for that read-out and setting: the value for `Cc1cc(NC(=O)c2ncc(-c3cc(F)c(N(C)C)nc3F)n2C)ccc1C(=O)N1CCN(C(=O)CN(C)C)CC1` [Example C2, N-[4-[4-[2-(dimethylamino)acetyl]piperazine-1-carbonyl]-3-methyl-phenyl]-5-[6-(dimethylamino)-2,5-difluoro-3-pyridyl]-1-methyl-imidazole-2-carboxamide] was 2.5 µM; that for `CN(C)c1nc(F)c(-c2cnc(C(=O)Nc3ccc(C(=O)N4CCN(C(=O)C5CCNCC5)CC4)c(Cl)c3)n2C)cc1F` [Example E2, N-[3-chloro-4-[4-(piperidine-4-carbonyl)piperazine-1-carbonyl]phenyl]-5-[6-(dimethylamino)-2,5-difluoro-3-pyridyl]-1-methyl-imidazole-2-carboxamide] was 0.19 µM. Take `CN(C)c1nc(F)c(-c2cnc(C(=O)Nc3ccc(C(=O)N4CCN(C(=O)C5CC[N+](C)(C)C5)CC4)c(Cl)c3)n2C)cc1F` (centres unmarked) [Example D5, N-[3-chloro-4-[4-(1,1-dimethylpyrrolidin-1-ium-3-carbonyl)piperazine-1-carbonyl]phenyl]-5-[6-(dimethylamino)-2,5-difluoro-3-pyridyl]-1-methyl-imidazole-2-carboxamide]: the IC90 amounted to 0.59 µM. As for `COc1ccc(-c2cnc(C(=O)Nc3ccc(C(=O)N4CCN(C(=O)C5CCNCC5)CC4)c(Cl)c3)n2C)c(OC)n1` [Example A7, N-[3-chloro-4-[4-(piperidine-4-carbonyl)piperazine-1-carbonyl]phenyl]-5-(2,6-dimethoxy-3-pyridyl)-1-methyl-imidazole-2-carboxamide], the concentration for an effect of 90% (IC90) came to 0.46 µM. Still for that read-out and setting: the value for `COc1cc(-c2cnc(C(=O)Nc3ccc(C(=O)N4CCN(C(=O)C5CCNCC5)CC4)c(Cl)c3)n2C)c(Cl)cn1` [Example A8, 5-(5-chloro-2-methoxy-4-pyridyl)-N-[3-chloro-4-[4-(piperidine-4-carbonyl)piperazine-1-carbonyl]phenyl]-1-methyl-imidazole-2-carboxamide] was 0.57 µM; that for `Cn1c(-c2ccc3[nH]nc(C(F)(F)F)c3c2)cnc1C(=O)Nc1ccc(C(=O)N2CCN(C(=O)C[C@@H]3CCNC3)CC2)c(Cl)c1` [Example A3, N-[3-chloro-4-[4-[2-[(3S)-pyrrolidin-3-yl]acetyl]piperazine-1-carbonyl]phenyl]-1-methyl-5-[3-(trifluoromethyl)-1H-indazol-5-yl]imidazole-2-carboxamide] was 0.23 µM; that for `CN(C)c1nc(F)c(-c2cnc(C(=O)Nc3ccc(C(=O)N4CCN(C(=O)C5CC(CN)C5)CC4)c(Cl)c3)n2C)cc1F` (centres unmarked) [Example F7, N-[4-[4-[3-(aminomethyl)cyclobutanecarbonyl]piperazine-1-carbonyl]-3-chloro-phenyl]-5-[6-(dimethylamino)-2,5-difluoro-3-pyridyl]-1-methyl-imidazole-2-carboxamide] was 0.39 µM.

Staying with this assay, now noted: ATCC17961, 16 h, read-out: ATCC 17961 IC90 [μM].
As to `Cn1c(-c2c(F)ccc3[nH]ccc23)cnc1C(=O)Nc1ccc(C(=O)N2CCN(C(=O)C[C@@H]3CCNC3)CC2)c(Cl)c1` [Example A1, N-[3-chloro-4-[4-[2-[(3S)-pyrrolidin-3-yl]acetyl]piperazine-1-carbonyl]phenyl]-5-(5-fluoro-1H-indol-4-yl)-1-methyl-imidazole-2-carboxamide], the IC90 amounted to 0.23 µM. Still for that read-out and setting: then `CN(C)c1nc(F)c(-c2cnc(C(=O)Nc3ccc(C(=O)NC4CCN(C(=O)CCOCC[N+](C)(C)C)CC4)c(Cl)c3)n2C)cc1F` [Example D10, 2-[3-[4-[[2-chloro-4-[[5-[6-(dimethylamino)-2,5-difluoro-3-pyridyl]-1-methyl-imidazole-2-carbonyl]amino]benzoyl]amino]-1-piperidyl]-3-oxo-propoxy]ethyl-trimethyl-ammonium], with 5.6 µM; and `CN(C)c1nc(F)c(-c2cnc(C(=O)Nc3ccc(C(=O)N4CCC(NC(=O)C[N+](C)(C)C)CC4)c(Cl)c3)n2C)cc1F` [Example D9, [2-[[1-[2-chloro-4-[[5-[6-(dimethylamino)-2,5-difluoro-3-pyridyl]-1-methyl-imidazole-2-carbonyl]amino]benzoyl]-4-piperidyl]amino]-2-oxo-ethyl]-trimethyl-ammonium], with 1.6 µM.

For the origin of these results see US12595255B2, “Heteroaryl-substituted imidazole derivatives” (Hoffmann-La Roche Inc., priority 2021, dated 2026).
